Measured values published in patent publication US20260258397A1, “REAGENTS AND SYSTEMS FOR […]” (priority 2023, published 2026).

Tests used:
PYR1^WIN-M = target: T1, PYR1^WIN-M (Arabidopsis thaliana, UniProt O49686, A160I/D26G/F159A/H60P/K59Q/N90S/Y23H); assay: PYR1 ELISA-like plate assay, immobilized PYR1^WIN-M with biotinylated ΔN-HAB1^T+; type: binding; settings: PYR1^WIN-M ELISA-like format
T1 construct: made in house; host or cells: E. coli
Description: PYR1 was immobilized overnight in clear plates, blocked with KPL milk diluent in buffer CBS ^17 (CBSM). All binding reactions were performed using CBSM. Detection was performed via binding a streptavidin-HRP conjugate to biotinylated ΔN-HAB1^T+ followed by incubation with a commercial TMB reagent. Lower limits of detection (LODs) were determined by linear regression of the response data in the low linear range using the formula LOD=3σy/m, where m is the slope of the response line and σy is the standard error of the y intercept using data combined from biological replicates.
Unconjugated 6×His-MBP-PYR1 variants were immobilized to Microlon clear plates (655081) using 100 μL of CBS without pH modification, at a protein concentration of 100 μg mL^−1, or 1.57 AM at 4° C. overnight. Wells assigned as no PYR controls received only CBS. Plates were sealed using Microseal B adhesive sealers (BioRad MSB-1001). […] The pellet was stored on ice until the blocked and washed plates were ready to receive the binding reactions. ΔN-HAB1^T+ was exchanged into CBSM with 1 mM DTT and 1 mM TCEP (CBSM++) using Zeba™ spin desalting columns (Thermo) were equilibrated with CBSM++. ΔN-HAB1^T+ was diluted to 10× the final binding reaction concentration and was immediately added to the pre-assembled assays in PCR plates, which were mixed by pipetting and transferred to the washed, blocked Microlon plates. […]

[1] = system: PYR1 mutant receptors (ligand-dependent binding to HAB1); assay: Yeast two-hybrid screens of PYR1 DSM and CB-S libraries for cannabinoid sensors

T1 sequence (O49686 whole entry Y23H/D26G/K59Q/H60P/N90S/F159A/A160I, other chains not shown): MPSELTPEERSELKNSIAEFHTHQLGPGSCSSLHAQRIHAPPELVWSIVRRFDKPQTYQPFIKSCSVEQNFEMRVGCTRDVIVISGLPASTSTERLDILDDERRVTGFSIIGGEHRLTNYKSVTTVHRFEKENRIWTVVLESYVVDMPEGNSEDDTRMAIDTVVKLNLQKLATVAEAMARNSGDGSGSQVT

For `Cc1c(C(=O)c2cccc3ccccc23)c2cccc3c2n1[C@H](CN1CCOCC1)CO3` [WIN 55,212-2], the “average LOD from two biological replicates” value (PYR1^WIN-M) was 0.21 ng/ml, the “affinity of improved sensors” value ([1]; CB-S2 library screened on 50 nM, 25 nM: JWH-015 PYR1 K59N/Y120H/F159L/A160G, JWH-016 V81I/Y120G/F159L/A160G, JWH-072 E4G/K59N/Y120H/F159L/A160G, WIN 55,212 E4G/Y23H/D26G/K59Q/F159A/A160I) was “low nM affinity” and the “outcome of DSM library Y2H selection” value ([1]; DSM library selected on 30 μM ligand, hits for 'pM concentrations' as printed) was “double mutant hits”.
